Data: patent US20110039763A1, “TARGETED ANTIMICROBIAL MOIETIES” (C3 JIAN, INC., priority 2009, published 2011)
Entries after “also recorded” stand apart in the source; their conditions may differ. Ends that are not written are not given here.

What was measured:
microorganisms [1] = experiment: Peptide activities: targeting/binding, antimicrobial, growth or phenotype altering (Tables 7, 8); type: cell-based; conditions: peptides having multiple activities
microorganisms [2] = experiment: Targeting peptide binding to target microorganisms (Tables 3, 10, 12); conditions: microorganism(s) the targeting peptide binds, preferably 1x PBS
microorganisms [3] = experiment: Morphology, biofilm and growth disrupting peptides (Table 5); type: cell-based; set-up: key: A: Peptide aggregates; B: Less hyphal formation; Clumps; Diffuse clumps and small polyps; F: Diffuse growth; H: Thin; I: Growth inhibition; Microcolony formation; Rippled; Small polyps; Thick; W: Halo formation on top, microlonies on bottom
From the text: In certain embodiments peptides that induce alterations in phenotype or other biological activities can also be used as antimicrobial effector moieties.

[4] = binding in aqueous buffers varied with peptide solubility
[5] = binding in aqueous buffers that varied with peptide solubility

Substance | Activities (microorganisms [1]) | Target(s) (microorganisms [2]; [4]) | Organism, effect (microorganisms [3]; MRSA) | Organism, effect (microorganisms [3]; S. epidermidis) | Organism, effect (microorganisms [3]; S. pneumoniae) | Organism, effect: S. epidermidis (microorganisms [3]; S. epidermidis) | further results
PF-607: peptide having multiple activities (chain 1 YIESDPRKFDYIFGAIRDH; chain 2 YIESDPRKFDYIFGAIRDH; Peptide with targeting and/or antimicrobial activity) | G B | S. epidermidis and P. mirabilis and E. coli and MRSA and S. pneumoniae and C. jeikeium | MRSA (S) | S. epidermidis (M) | S. pneumoniae (R) |  | Organism, effect (microorganisms [3]; C. jejuni): C. jejuni (R); Organism, effect (microorganisms [3]; E. faecalis): E. faecalis (A)
PF-133: peptide having multiple activities (chain 1 GDPTAGQKPVECP; chain 2 GDPTAGQKPVECP; Peptide with targeting and/or antimicrobial activity) | G B | S. epidermidis; also recorded: C. jeikeium; also recorded: C. jejuni; also recorded: M. smegmatis |  |  |  |  | Organism, effect: C. jeikeium (microorganisms [3]): C. jeikeium (R)
PF-584: peptide having multiple activities (chain 1 SYIKNLSNQKFLIAF; chain 2 SYIKNLSNQKFLIAF; Peptide with targeting and/or antimicrobial activity) | G B | S. epidermidis and M. luteus and P. mirabilis and C. albicans and MRSA and S. pneumoniae and E. faecalis and C. jeikeium | MRSA (D) | S. epidermidis (C) | S. pneumoniae (D) |  | Organism, effect (microorganisms [3]; C. jejuni): C. jejuni (D); Organism, effect (microorganisms [3]; E. coli): E. coli (C); Organism, effect (microorganisms [3]; E. faecalis): E. faecalis (D)
PF-416: peptide having multiple activities (chain 1 SKAGLYGKIERSDKRE; chain 2 SKAGLYGKIERSDKRE; Peptide with targeting and/or antimicrobial activity) | G B | S. pneumoniae; also recorded: C. jeikeium |  |  |  |  | Organism, effect: S. pneumoniae (microorganisms [3]; S. pneumoniae): S. pneumoniae (H)
PF-585: peptide having multiple activities (chain 1 DYNHLLNVVQDWVNTN; chain 2 DYNHLLNVVQDWVNTN; Peptide with targeting and/or antimicrobial activity) | G B | S. epidermidis and E. coli and C. albicans and MRSA and S. pneumoniae and C. jeikeium | MRSA (S) | S. epidermidis (S) | S. pneumoniae (R) |  | Organism, effect (microorganisms [3]; C. jejuni): C. jejuni (R); Organism, effect (microorganisms [3]; E. faecalis): E. faecalis (A)
PF-655: peptide having multiple activities (chain 1 DAPCFDDQFGDLKCQMC; chain 2 DAPCFDDQFGDLKCQMC; Peptide with targeting and/or antimicrobial activity) | G B | M. smegmatis | MRSA (M) | S. epidermidis (R) | S. pneumoniae (H) |  | Organism, effect (microorganisms [3]; B. subtilis): B. subtilis (H)
PF-052: peptide having multiple activities (QELINEAVNLLVKSK; Peptide with targeting and/or antimicrobial activity) | G B |  |  |  |  | S. epidermidis (S) | Target(s) (microorganisms [2]; [5]): S. epidermidis and M. luteus and E. coli and MRSA and E. faecalis and C. jeikeium and C. jejuni; Organism, effect: C. jeikeium (microorganisms [3]): C. jeikeium (D); Organism, effect: M. luteus (microorganisms [3]): M. luteus (A); Organism, effect: MRSA (microorganisms [3]; MRSA): MRSA (R)
PF-515: peptide having multiple activities (DKSTQDKDIKQAKLLAQELGL-NH2) | G B | S. epidermidis; also recorded: C. albicans; also recorded: S. pneumoniae; also recorded: C. jeikeium |  |  | S. pneumoniae (H) |  | 
PF-638: peptide having multiple activities (chain 1 TFILPK; chain 2 TFILPK; Peptide with targeting and/or antimicrobial activity) | G B | S. epidermidis and C. albicans and MRSA and C. jeikeium | MRSA (M) | S. epidermidis (R) | S. pneumoniae (I) |  | Organism, effect (microorganisms [3]; E. faecalis): E. faecalis (H)
PF-383: peptide having multiple activities (chain 1 WSEIEINTKQSN; chain 2 WSEIEINTKQSN; Peptide with targeting and/or antimicrobial activity) | G B | S. epidermidis; also recorded: B. subtilis; also recorded: B. fragilis; also recorded: E. coli; also recorded: C. jejuni |  |  |  | S. epidermidis (C) | Organism, effect: E. coli (microorganisms [3]; E. coli): E. coli (R)
PF-756: peptide having multiple activities (DALLRLA; Peptide with targeting and/or antimicrobial activity) | G B | S. epidermidis and M. luteus and C. albicans and MRSA and C. jeikeium |  |  | S. pneumoniae (A) |  | 
PF-430: peptide having multiple activities (chain 1 AVVCGYLAYTATS; chain 2 AVVCGYLAYTATS; Peptide with targeting and/or antimicrobial activity) | G B | S. epidermidis; also recorded: M. luteus; also recorded: E. coli; also recorded: S. pneumoniae; also recorded: E. faecalis; also recorded: C. jeikeium; also recorded: C. jejuni | MRSA (M) | S. epidermidis (M) | S. pneumoniae (M) |  | 
PF-558: peptide having multiple activities (ADAPPPLIVRYS; Peptide with targeting and/or antimicrobial activity) | G B | S. epidermidis; also recorded: E. coli; also recorded: C. albicans; also recorded: C. jeikeium; also recorded: C. jejuni | MRSA (C) | S. epidermidis (M) | S. pneumoniae (R) |  | Organism, effect (microorganisms [3]; B. subtilis): B. subtilis (D); Organism, effect (microorganisms [3]; C. jejuni): C. jejuni (H)
PF-017: peptide having multiple activities (ESIIE; Peptide with targeting and/or antimicrobial activity) | G B |  |  |  |  |  | Target(s) (microorganisms [2]; [5]): E. coli; Organism, effect: MRSA (microorganisms [3]; MRSA): MRSA (M)
PF-313: peptide having multiple activities (YITSHKNARAIIKKFERDEILEEVITHYLNRK; Peptide with targeting and/or antimicrobial activity) | G B | S. epidermidis; also recorded: C. difficile |  |  |  | S. epidermidis (C) | 
PF-395: peptide having multiple activities (chain 1 YCVPLGNMGNMNNKIW; chain 2 YCVPLGNMGNMNNKIW; Peptide with targeting and/or antimicrobial activity) | G B | S. epidermidis; also recorded: E. coli; also recorded: P. aeruginosa; also recorded: S. pneumoniae; also recorded: E. faecalis; also recorded: C. jeikeium; also recorded: C. jejuni |  |  |  | S. epidermidis (C) | Organism, effect: E. coli (microorganisms [3]; E. coli): E. coli (R); Organism, effect: MRSA (microorganisms [3]; MRSA): MRSA (C)
PF-024: peptide having multiple activities (DLRKAK; Peptide with targeting and/or antimicrobial activity) | G B |  |  |  |  | S. epidermidis (D) | Target(s) (microorganisms [2]; [5]): M. luteus and C. albicans and MRSA and E. faecalis and C. jeikeium; Organism, effect: MRSA (microorganisms [3]; MRSA): MRSA (M)
PF-397: peptide having multiple activities (chain 1 VEDLMEDLNA; chain 2 VEDLMEDLNA; Peptide with targeting and/or antimicrobial activity) | G B | S. epidermidis and MRSA and S. pneumoniae and E. faecalis and C. jejuni |  |  |  | S. epidermidis (C) | 
PF-212: peptide having multiple activities (NDSKASN; Peptide with targeting and/or antimicrobial activity) | G B | M. luteus; also recorded: P. aeruginosa |  |  |  |  | Organism, effect: M. luteus (microorganisms [3]): M. luteus (M)
PF-129: peptide having multiple activities (chain 1 MKLLARDPWVCAWNDIW; chain 2 MKLLARDPWVCAWNDIW; Peptide with targeting and/or antimicrobial activity) | G B | S. epidermidis and MRSA and E. faecalis and C. jeikeium and C. jejuni |  |  |  | S. epidermidis (M) | Organism, effect: C. jeikeium (microorganisms [3]): C. jeikeium (R)
PF-188: peptide having multiple activities (ARTFAGRLGTRYFGGLMRSTKA; Peptide with targeting and/or antimicrobial activity) | G B | S. epidermidis and M. luteus and E. coli and C. albicans and MRSA and E. faecalis |  |  |  |  | Organism, effect: C. jeikeium (microorganisms [3]): C. jeikeium (H)
PF-664: peptide having multiple activities (chain 1 DQLCVEYPARVSTG; chain 2 DQLCVEYPARVSTG; Peptide with targeting and/or antimicrobial activity) | G B | M. smegmatis | MRSA (R) | S. epidermidis (M) | S. pneumoniae (M) |  | Organism, effect (microorganisms [3]; E. faecalis): E. faecalis (R)
